These results are taken from patent publication US11242334B2, “Heterocyclic compounds as kinase inhibitors, compositions comprising the heterocyclic compound, and methods of use thereof” (JS INNOPHARM (SHANGHAI) LTD, priority 2017, dated 2022).

The subject of one experiment is Colo205 cell line. The experiment can be described thus: Colo205 cell proliferation assay (MTT assay, WST-8 readout). The experiment is classed as cell-based. The note with it: Homo sapiens; IC50 values of growth inhibition in Colo 205 cells; 72 hours. Put shortly: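 Colo205 cells were seeded at 5,000 cells/well in RPMI-1640 with 10% FBS and attached for 24 h at 37° C. They were then exposed for 72 h to compound at final 50 μM to 0.005 μM (0.5% DMSO). Viability was read as WST-8 absorbance at 450 nm after 2 h, and IC50 of growth inhibition was determined.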

In the next experiment the target is T1, human ERK2 (Homo sapiens, UniProt P28482).
T1 construct: recombinantly expressed as GST-tagged full-length protein purified from E. coli; GST; purchased Invitrogen PV3311; host or cells: E. coli
The experiment can be described thus: LanthaScreen TR-FRET enzymatic assay, ERK2. The note with it: IC50 values of ERK2 biochemical activity; 5 μM ATP, 400 nM ATF2-GFP substrate. As to the method: Compounds were tested in a LanthaScreen™ time-resolved fluorescence energy transfer (TR-FRET) enzymatic assay from Invitrogen. The assay used human ERK2 (Mitogen Activated Kinase 1, Invitrogen, Cat. PV3311) recombinantly expressed as GST-tagged full-length protein purified from E. coli and activated in vitro with MAP2K1. The substrate was a recombinant truncated version (residues 19-96) of ATF2 fused with Green Fluorescent Protein (Invitrogen, Cat. PV4445). Test compounds were prepared and diluted in DMSO in 3-fold serial dilutions to 100× of the final testing concentrations. The compounds were then further diluted to 4× by the kinase reaction buffer (Invitrogen, Cat. PV3189). The enzymatic reaction for compound testing was performed in a white 384-well polypropylene plate (Packard, Cat. 6005214) with a total reaction volume of 10 μl containing 20 ng/ml ERK2, 400 nM substrate, and 5 μM ATP that is around its Km. The assay started with loading 2.5 μl of ERK2 diluted in kinase reaction buffer to wells, followed by addition of equal volume of 4× compounds for 15-min incubation at the room temperature for pre-treatment. The enzymatic reaction was initiated by addition of 5 μl of mixture of the substrate and ATP prepared in kinase reaction buffer. After one hour reaction, 10 μl mixture of EDTA (final 10 mM) and terbium-labeled anti-pATF2 (pThr71) antibody (final 2 nM) (Invitrogen, Cat. PV4451) prepared in TR-FRET antibody dilution buffer (Invitrogen, Cat. PV3574) was added to stop the enzymatic reaction and produce TR-FRET signals. After 30 minutes of incubation at room temperature, the plate was read in Tecan Infinite F200 Pro with the following settings: Excitation 340 nm (30)/Emission1 495 nm (10)/Emission2 520 nm (25). The TR-FRET values were dimensionless numbers that were calculated as the ratio of the acceptor ([…]) signal to the donor (Terbium) signal. Percent of control was calculated as the percentage of compound-treated vs 1% DMSO vehicle-treated. The dose-response curves were generated and the ICsos were calculated by nonlinear sigmoid curve fitting using GraphPad Prism.
The IC50 values of ERK2 biochemical activity for the examples disclosed herein are listed in Table 3, A: ≤10 nM; B: >10 nM and ≤50 nM; C: >50 nM and ≤100 nM; D.>100 nM.
(In general: TR-FRET usually uses a lanthanide donor and a delayed reading to cut background.)

T1 sequence (P28482 whole entry): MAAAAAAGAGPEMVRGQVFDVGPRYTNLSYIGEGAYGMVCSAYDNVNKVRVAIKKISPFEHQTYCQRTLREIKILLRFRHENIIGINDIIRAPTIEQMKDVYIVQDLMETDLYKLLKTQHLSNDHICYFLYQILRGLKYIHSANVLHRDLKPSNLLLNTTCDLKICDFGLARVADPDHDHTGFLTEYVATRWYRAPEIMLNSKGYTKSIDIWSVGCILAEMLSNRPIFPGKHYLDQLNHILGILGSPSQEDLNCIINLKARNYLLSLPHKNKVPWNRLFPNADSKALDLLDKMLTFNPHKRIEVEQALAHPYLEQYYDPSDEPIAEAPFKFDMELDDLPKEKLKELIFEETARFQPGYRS

As to `Cn1cc(-c2n[nH]c3ccc(-c4ccn([C@H](CO)c5cc(F)cc(C(F)(F)F)c5)c(=O)c4)cc23)cn1` [Example 41, (S)-1-(1-(3-fluoro-5-(trifluoromethyl)phenyl)-2-hydroxyethyl)-4-(3-(1-methyl-1H-pyrazol-4-yl)-1H-indazol-5-yl)pyridin-2(1H)-one], the IC50 – broadly, the concentration that gives 50% inhibition – is at most 500 nM in the experiment with Colo205 cell line and below 10 nM at human ERK2.
The matching figures for `Cn1cc(-c2n[nH]c3ccc(-c4ccn([C@H](CO)c5cccc(C(F)(F)F)c5)c(=O)c4)cc23)cn1` [Example 42, (S)-1-(2-hydroxy-1-(3-(trifluoromethyl)phenyl)ethyl)-4-(3-(1-methyl-1H-pyrazol-4-yl)-1H-indazol-5-yl)pyridin-2(1H)-one]: 500 to 1000 nM and below 10 nM.
Taken in the same sequence, the figures for `CC(C)Oc1ccc(-c2n[nH]c3ccc(-c4ccn([C@H](CO)c5cccc(C(F)(F)F)c5)c(=O)c4)cc23)cn1` [Example 43, (S)-1-(2-hydroxy-1-(3-(trifluoromethyl)phenyl)ethyl)-4-(3-(6-isopropoxypyridin-3-yl)-1H-indazol-5-yl)pyridin-2(1H)-one] were 1000 to 5000 nM and below 10 nM.
As for `CC(C)Oc1ccc(-c2n[nH]c3ccc(-c4ccn([C@H](CO)c5cccc(Br)c5)c(=O)c4)cc23)cn1` [Example 44, (S)-1-(1-(3-bromophenyl)-2-hydroxyethyl)-4-(3-(6-isopropoxypyridin-3-yl)-1H-indazol-5-yl)pyridin-2(1H)-one], the IC50 in the experiment on Colo205 cell line was 500 to 1000 nM; at human ERK2, below 10 nM.
Taken in the same sequence, the figures for `Cn1cc(-c2n[nH]c3ccc(-c4ccn([C@H](CO)c5cccc(Br)c5)c(=O)c4)cc23)cn1` [Example 45, (S)-1-(1-(3-bromophenyl)-2-hydroxyethyl)-4-(3-(1-methyl-1H-pyrazol-4-yl)-1H-indazol-5-yl)pyridin-2(1H)-one] were at most 500 nM and below 10 nM.
The matching figures for `Cn1cc(-c2n[nH]c3ccc(-c4ccn([C@H](CO)c5ccc(F)c(Br)c5)c(=O)c4)cc23)cn1` [Example 46, (S)-1-(1-(3-bromo-4-fluorophenyl)-2-hydroxyethyl)-4-(3-(1-methyl-1H-pyrazol-4-yl)-1H-indazol-5-yl)pyridin-2(1H)-one]: at most 500 nM and below 10 nM.
Taken in the same sequence, the figures for `Cn1cc(-c2n[nH]c3ccc(-c4ccn([C@H](CO)c5cccc(I)c5)c(=O)c4)cc23)cn1` [Example 47, (S)-1-(2-hydroxy-1-(3-iodophenyl)ethyl)-4-(3-(1-methyl-1H-pyrazol-4-yl)-1H-indazol-5-yl)pyridin-2(1H)-one] were at most 500 nM and below 10 nM.
On to `CC(C)Oc1ccc(-c2n[nH]c3ccc(-c4ccn([C@H](CO)c5cccc(I)c5)c(=O)c4)cc23)cn1` [Example 48, (S)-1-(2-hydroxy-1-(3-iodophenyl)ethyl)-4-(3-(6-isopropoxypyridin-3-yl)-1H-indazol-5-yl)pyridin-2(1H)-one], for which the IC50 was 500 to 1000 nM in the experiment with Colo205 cell line and below 10 nM against human ERK2.
The matching figures for `Cc1cc(-c2n[nH]c3ccc(-c4ccn([C@H](CO)c5cccc(I)c5)c(=O)c4)cc23)ccn1` [Example 49, (S)-1-(2-hydroxy-1-(3-iodophenyl)ethyl)-4-(3-(2-methylpyridin-4-yl)-1H-indazol-5-yl)pyridin-2(1H)-one]: at most 500 nM and below 10 nM.
Taken in the same sequence, the figures for `O=c1cc(-c2ccc3[nH]nc(-c4cnn(C5CC5)c4)c3c2)ccn1[C@H](CO)c1ccc(F)c(Cl)c1` [Example 50, (S)-1-(1-(3-chloro-4-fluorophenyl)-2-hydroxyethyl)-4-(3-(1-cyclopropyl-1H-pyrazol-4-yl)-1H-indazol-5-yl)pyridin-2(1H)-one] were 500 to 1000 nM and below 10 nM.
Taken in the same sequence, the figures for `O=c1cc(-c2ccc3[nH]nc(-c4cnn(C(F)F)c4)c3c2)ccn1[C@H](CO)c1ccc(F)c(Cl)c1` [Example 51, (S)-1-(1-(3-chloro-4-fluorophenyl)-2-hydroxyethyl)-4-(3-(1-(difluoromethyl)-1H-pyrazol-4-yl)-1H-indazol-5-yl)pyridin-2(1H)-one] were at most 500 nM and below 10 nM.
In the case of `COCCn1cc(-c2n[nH]c3ccc(-c4ccn([C@H](CO)c5ccc(F)c(Cl)c5)c(=O)c4)cc23)cn1` [Example 52, (S)-1-(1-(3-chloro-4-fluorophenyl)-2-hydroxyethyl)-4-(3-(1-(2-methoxyethyl)-1H-pyrazol-4-yl)-1H-indazol-5-yl)pyridin-2(1H)-one], the figures for the IC50 in the experiment with Colo205 cell line and against human ERK2 were 1000 to 5000 nM and below 10 nM, respectively.
The matching figures for `Cc1cc(-c2n[nH]c3ccc(-c4ccn(Cc5cccc(Cl)c5)c(=O)c4)cc23)ccn1` [Example 53, 1-(3-chlorobenzyl)-4-(3-(2-methylpyridin-4-yl)-1H-indazol-5-yl)pyridin-2(1H)-one]: 500 to 1000 nM and below 10 nM.
The matching figures for `Cc1cc(-c2n[nH]c3ccc(-c4ccn(Cc5cc(Br)ccc5F)c(=O)c4)cc23)ccn1` [Example 55, 1-(5-bromo-2-fluorobenzyl)-4-(3-(2-methylpyridin-4-yl)-1H-indazol-5-yl)pyridin-2(1H)-one]: at most 500 nM and below 10 nM.
For `Cc1cc(-c2n[nH]c3ccc(-c4ccn(Cc5ccc(F)c(Br)c5)c(=O)c4)cc23)ccn1` [Example 56, 1-(3-bromo-4-fluorobenzyl)-4-(3-(2-methylpyridin-4-yl)-1H-indazol-5-yl)pyridin-2(1H)-one], the IC50 with Colo205 cell line was 500 to 1000 nM; against human ERK2, below 10 nM.
Taken in the same sequence, the figures for `Cc1cc(-c2n[nH]c3ccc(-c4ccn(Cc5cccc(I)c5)c(=O)c4)cc23)ccn1` [Example 57, 1-(3-iodobenzyl)-4-(3-(2-methylpyridin-4-yl)-1H-indazol-5-yl)pyridin-2(1H)-one] were at most 500 nM and below 10 nM.
Taken in the same sequence, the figures for `Cc1cc(-c2n[nH]c3ccc(-c4ccn(Cc5cc(F)cc(Cl)c5)c(=O)c4)cc23)ccn1` [Example 58, 1-(3-chloro-5-fluorobenzyl)-4-(3-(2-methylpyridin-4-yl)-1H-indazol-5-yl)pyridin-2(1H)-one] were 500 to 1000 nM and below 10 nM.
The matching figures for `Cc1cc(-c2n[nH]c3ccc(-c4ccn(Cc5ccccc5C(F)(F)F)c(=O)c4)cc23)ccn1` [Example 59, 4-(3-(2-methylpyridin-4-yl)-1H-indazol-5-yl)-1-(2-(trifluoromethyl)benzyl)pyridin-2(1H)-one]: 1000 to 5000 nM and below 10 nM.
For the molecule `Cc1cc(-c2n[nH]c3ccc(-c4ccn(Cc5ccccc5)c(=O)c4)cc23)ccn1` [Example 60, 1-benzyl-4-(3-(2-methylpyridin-4-yl)-1H-indazol-5-yl)pyridin-2(1H)-one], the results for the IC50 with Colo205 cell line and on human ERK2 were 500 to 1000 nM and below 10 nM, respectively.
Regarding `Cc1cc(-c2n[nH]c3ccc(-c4ccn(Cc5ccc(F)c(F)c5)c(=O)c4)cc23)ccn1` [Example 61, 1-(3,4-difluorobenzyl)-4-(3-(2-methylpyridin-4-yl)-1H-indazol-5-yl)pyridin-2(1H)-one], the IC50 in the experiment with Colo205 cell line was 500 to 1000 nM; against human ERK2, below 10 nM.
With `Cc1cc(-c2n[nH]c3ccc(-c4ccn(Cc5ccc(Cl)c(F)c5)c(=O)c4)cc23)ccn1` [Example 62, 1-(4-chloro-3-fluorobenzyl)-4-(3-(2-methylpyridin-4-yl)-1H-indazol-5-yl)pyridin-2(1H)-one], the IC50 is 500 to 1000 nM with Colo205 cell line and below 10 nM on human ERK2.
Taken in the same sequence, the figures for `Cc1cc(-c2n[nH]c3ccc(-c4ccn(Cc5cccc(Cl)c5F)c(=O)c4)cc23)ccn1` [Example 63, 1-(3-chloro-2-fluorobenzyl)-4-(3-(2-methylpyridin-4-yl)-1H-indazol-5-yl)pyridin-2(1H)-one] were 500 to 1000 nM and below 10 nM.
The matching figures for `Cc1cc(-c2n[nH]c3ccc(-c4ccn(Cc5ccc(C#N)cc5)c(=O)c4)cc23)ccn1` [Example 64, 4-((4-(3-(2-methylpyridin-4-yl)-1H-indazol-5-yl)-2-oxopyridin-1(2H)-yl)methyl)benzonitrile]: 1000 to 5000 nM and below 10 nM.
